In patent US20240109915A1, “NOVEL ACC INHIBITORS” (Pfizer Inc., priority 2022, published 2024):

Each molecule was assayed against recombinant human ACC1 (rhACC1) (Homo sapiens (Human), UniProt Q13085) (assay: Transcreener ADP detection FP assay, direct inhibition of rhACC1). Conditions: Geomean IC50, n ≥ 2 unless * then n = 1; 50 μM ATP, 30 μM acetyl-CoA.
Type: biochemical
Description: The direct inhibition of ACC1 for the compounds of the present invention was determined using preparations of recombinant human ACC1 (rhACC1) (SEQ ID NO. 1)
Two liters of SF9 cells, infected with recombinant baculovirus containing full length human ACC1 cDNA, were suspended in ice-cold lysis buffer (25 mM Tris, pH 7.5; 150 mM NaCl; 10% glycerol; 5 mM imidazole (EMD Bioscience; Gibbstown, NJ); 2 mM TCEP (BioVectra; Charlottetown, Canada); Benzonase nuclease (10000 U/100 g cell paste; Novagen; Madison, WI); EDTA-free protease inhibitor cocktail (1 tab/50 ml; Roche Diagnostics; Mannheim, Germany). Cells were lysed by 3 cycles of freeze-thaw and centrifuged at 40,000×g for 40 minutes (4° C.). Supernatant was directly loaded onto a HisTrap FF crude column (GE Healthcare; Piscataway, NJ) and eluted with an imidazole gradient up to 0.5 M over 20 column volumes (CV). ACC1-containing fractions were pooled and diluted 1:5 with 25 mM Tris, pH 7.5, 2 mM TCEP, 10% glycerol and direct loaded onto a CaptoQ (GE Healthcare) column and eluted with an NaCl gradient up to 1 M over 20 CV's. Phosphate groups were removed from purified ACC1 by incubation with lambda phosphatase (100 U/10 μM target protein; New England Biolabs; Beverly, MA) for 14 hours at 4° C.; okadaic acid was added (1 μM final concentration; Roche Diagnostics) to inhibit the phosphatase. Purified ACC1 was exchanged into 25 mM Tris, pH 7.5, 2 mM TCEP, 10% glycerol, 0.5 M NaCl by 6 hour dialysis at 4° C. Aliquots were prepared and frozen at −80° C.
Measurement of rhACC1 Inhibition rhACC1 was assayed in a Corning #3820 (Corning, Tewksbury, MA) 384-well plate using the Transcreener ADP detection FP assay kit (Bellbrook Labs, Madison, Wisconsin) using the manufacturer's recommended conditions for a 50 μM ATP reaction. The final conditions for the assay were 50 mM HEPES, pH 7.2, 10 mM MgCl2, 7.5 mM tripotassium citrate, 2 mM DTT, 0.1 mg/mL BSA, 30 μM acetyl-CoA, 50 μM ATP, and 10 mM KHCO3. Typically, a […] was run for 60 min at room temp, and 10 μl of Transcreener stop and detect buffer was added and the combination incubated at room temp for an overnight (18 hours). The data was acquired on an Envision Fluorescence reader (PerkinElmer) using a 620 excitation Cy5 FP general dual mirror, 620 excitation Cy5 FP filter, 688 emission (S) and a 688 (P) emission filter.
Cc1c(O)c(C(=O)N2CCC3(CC2)CC(=O)c2nc(C(C)(C)C)sc2C3)cc2ccccc12 [Example 85] showed an IC50 of 7 nM.
Molecule CC(C)(C)c1nc2c(s1)CC1(CCN(C(=O)c3ccc(Cl)c4[nH]ccc34)CC1)CC2=O [Example 88] has an IC50 of 15 nM.
For COc1cccc2ncc(C(=O)N3CCC4(CC3)CC(=O)c3nc(C(C)(C)C)sc3C4)cc12 [Example 66], the IC50 was 115 nM.
CN(C)c1cc(C(=O)N2CCC3(CC2)CC(=O)c2nc(C(C)(C)C)sc2C3)cc(-c2ccccc2)n1 [Example 68] showed an IC50 of 3.9 nM.
COc1cc(C(=O)N2CCC3(CC2)CC(=O)c2nc(C4(C)CC4)sc2C3)cc2c(C)nn(C)c12 [Example 11, 1′-(7-methoxy-1,3-dimethyl-1H-indazole-5-carbonyl)-2-(1-methylcyclopropyl)-5H-spiro[benzo[d]thiazole-6,4′-piperidin]-4(7H)-one] gave an IC50 of 4.5 nM.
With COc1cc(C(=O)N2CCC3(CC2)CC(=O)c2nc(C(C)(C)C)sc2C3)cc2cc(C3CC3)cnc12 [Example 104] the IC50 was 6.7 nM.
CCc1nccc2c(OC)cc(C(=O)N3CCC4(CC3)CC(=O)c3nc(C(C)(C)C)sc3C4)cc12 [Example 29, 2-(tert-butyl)-1′-(1-ethyl-5-methoxyisoquinoline-7-carbonyl)-5H-spiro[benzo[d]thiazole-6,4′-piperidin]-4(7H)-one] showed an IC50 of 11.1 nM.
Molecule COc1cc(C(=O)N2CCC3(CC2)CC(=O)c2nc(C(C)C)sc2C3)cc2c(C)nn(C)c12 [Example 10, 2-isopropyl-1′-(7-methoxy-1,3-dimethyl-1H-indazole-5-carbonyl)-5H-spiro[benzo[d]thiazole-6,4′-piperidin]-4(7H)-one] has an IC50 of 10 nM.
Work on COc1ccc2ccc(C(=O)N3CCC4(CC3)CC(=O)c3nc(C(C)(C)C)sc3C4)cc2c1 [Example 58] yielded an IC50 of 7.1 nM.
Molecule CCc1nn(C)c2c(OC)cc(C(=O)N3CCC4(CC3)CC(=O)c3nc(C(C)(C)C)sc3C4)cc12 [Example 108] has an IC50 of 5.6 nM.
For CSc1cnc2c(C)cc(C(=O)N3CCC4(CC3)CC(=O)c3nc(C(C)(C)C)sc3C4)cc2c1 [Example 21, 2-(tert-butyl)-1′-(8-methyl-3-(methylthio)quinoline-6-carbonyl)-5H-spiro[benzo[d]thiazole-6,4′-piperidin]-4(7H)-one], the IC50 was 3.6 nM.
COc1cc(C(=O)N2CCC3(CC2)CC(=O)c2nc(C(C)(C)C)sc2C3)cc2cc[nH]c12 [Example 106] gave an IC50 of 12.9 nM.
With Cc1cc(C(=O)N2CCC3(CC2)CC(=O)c2nc(C(C)(C)C)sc2C3)cc2c1NCCC2 [Example 93] the IC50 was 19.5 nM.
CC(C)(C)c1nc2c(s1)CC1(CCN(C(=O)c3ccc4nccc(O)c4c3)CC1)CC2=O [Example 72] was tested, and the IC50 was 10000 nM.
CC(C)(C)c1nc2c(s1)CC1(CCN(C(=O)c3cc(O)c4ccccc4c3)CC1)CC2=O [Example 57] was tested, and the IC50 was 19.7 nM.
CNc1nccc2c(C)cc(C(=O)N3CCC4(CC3)CC(=O)c3nc(C(C)(C)C)sc3C4)cc12 [Example 24, 2-(tert-butyl)-1′-(5-methyl-1-(methylamino)isoquinoline-7-carbonyl)-5H-spiro[benzo[d]thiazole-6,4′-piperidin]-4(7H)-one] gave an IC50 of 3.1 nM.
With COc1ccc(C)c2[nH]c(C(=O)N3CCC4(CC3)CC(=O)c3nc(C(C)(C)C)sc3C4)cc12 [Example 56] the IC50 was 5.8 nM.
Molecule CCOc1cnc2c(C)cc(C(=O)N3CCC4(CC3)CC(=O)c3nc(C(C)(C)C)sc3C4)cc2c1 [Example 20, 2-(tert-butyl)-1′-(3-ethoxy-8-methylquinoline-6-carbonyl)-5H-spiro[benzo[d]thiazole-6,4′-piperidin]-4(7H)-one] has an IC50 of 30.1 nM.
For Cc1cc(C(=O)N2CCC3(CC2)CC(=O)c2nc(C(C)(C)C)sc2C3)c2[nH]ncc2c1C [Example 35, 2-(tert-butyl)-1′-(4,5-dimethyl-1H-indazole-7-carbonyl)-5H-spiro[benzo[d]thiazole-6,4′-piperidin]-4(7H)-one], the IC50 was 2.6 nM.
With Cc1cc(C(=O)N2CCC3(CC2)CC(=O)c2nc(C(C)(C)C)sc2C3)c2[nH]ncc2c1Cl [Example 34, 2-(tert-butyl)-1′-(4-chloro-5-methyl-1H-indazole-7-carbonyl)-5H-spiro[benzo[d]thiazole-6,4′-piperidin]-4(7H)-one] the IC50 was 1.3 nM.
Molecule COc1nccc2ccc(C(=O)N3CCC4(CC3)CC(=O)c3nc(C(C)(C)C)sc3C4)cc12 [Example 46] has an IC50 of 85.9 nM.
In the case of Cc1cc(C(=O)N2CCC3(CC2)CC(=O)c2nc(C(C)(C)C)sc2C3)cc2[nH]ccc12 [Example 62], the IC50 is reported as 3.6 nM.
COc1ccnc2c(C)cc(C(=O)N3CCC4(CC3)CC(=O)c3nc(C(C)(C)C)sc3C4)cc12 [Example 41, 2-(tert-butyl)-1′-(4-methoxy-8-methylquinoline-6-carbonyl)-5H-spiro[benzo[d]thiazole-6,4′-piperidin]-4(7H)-one] gave an IC50 of 15.3 nM.
Molecule CC(C)(C)c1nc2c(s1)CC1(CCN(C(=O)c3ccc4[nH]cc(Cl)c4c3)CC1)CC2=O [Example 65] has an IC50 of 13 nM.
Cc1ccnc2c(C)cc(C(=O)N3CCC4(CC3)CC(=O)c3nc(C(C)(C)C)sc3C4)cc12 [Example 96] gave an IC50 of 26.1 nM.
CC(C)(C)c1nc2c(s1)CC1(CCN(C(=O)c3ccc(Cl)c4cc[nH]c34)CC1)CC2=O [Example 89] showed an IC50 of 6.3 nM.
CNc1ccc2c(C)cc(C(=O)N3CCC4(CC3)CC(=O)c3nc(C(C)C)sc3C4)cc2n1 [Example 8, 2-isopropyl-1′-(5-methyl-2-(methylamino)quinoline-7-carbonyl)-5H-spiro[benzo[d]thiazole-6,4′-piperidin]-4(7H)-one] gave an IC50 of 5.5 nM.
CC(C)Nc1ccc2ccc(C(=O)N3CCC4(CC3)CC(=O)c3nc(C(C)(C)C)sc3C4)cc2n1 [Example 30, 2-(tert-butyl)-1′-(2-(isopropylamino)quinoline-7-carbonyl)-5H-spiro[benzo[d]thiazole-6,4′-piperidin]-4(7H)-one] showed an IC50 of 4.6 nM.
Work on CC(C)(C)c1nc2c(s1)CC1(CCN(C(=O)c3cc(Cl)c4cc[nH]c4c3)CC1)CC2=O [Example 78] yielded an IC50 of 7.6 nM.
Work on CN(C)c1cc(C(=O)N2CCC3(CC2)CC(=O)c2nc(C(C)(C)C)sc2C3)cc(-c2ccc(C(N)=O)cc2)n1 [Example 22, 4-(4-(2-(tert-butyl)-4-oxo-4,7-dihydro-5H-spiro[benzo[d]thiazole-6,4′-piperidine]-1′-carbonyl)-6-(dimethylamino)pyridin-2-yl)benzamide] yielded an IC50 of 0.9 nM.
Molecule Cc1cccc2ccc(C(=O)N3CCC4(CC3)CC(=O)c3nc(C(C)(C)C)sc3C4)cc12 [Example 91] has an IC50 of 14 nM.
For COc1ccc2cc(C(=O)N3CCC4(CC3)CC(=O)c3nc(C(C)(C)C)sc3C4)cc(C)c2n1 [Example 80], the IC50 was 109 nM.
With CCOc1cc(C(=O)N2CCC3(CC2)Cc2sc(C(C)(C)C)nc2C(O)C3)cc2c(C)nn(C)c12 (racemic) [Example 109, rac-(R)-(2-(tert-butyl)-4-hydroxy-4,7-dihydro-5H-spiro[benzo[d]thiazole-6,4′-piperidin]-1′-yl)(7-ethoxy-1,3-dimethyl-1H-indazol-5-yl)methanone] the IC50 was 23.2 nM.
For COc1cc(C(=O)N2CCC3(CC2)CC(=O)c2nc(C(C)(C)C)sc2C3)nc2c(OC)cccc12 [Example 86], the IC50 was 14.3 nM.
In the case of COc1cc(C(=O)N2CCC3(CC2)CC(=O)c2nc(C(C)(C)C)sc2C3)cc2c(OC)cncc12 [Example 43, 2-(tert-butyl)-1′-(4,8-dimethoxyisoquinoline-6-carbonyl)-5H-spiro[benzo[d]thiazole-6,4′-piperidin]-4(7H)-one], the IC50 is reported as 5.2 nM.
CC(C)(C)c1nc2c(s1)CC1(CCN(C(=O)c3ccc4ccccc4c3O)CC1)CC2=O [Example 63] gave an IC50 of 19.7 nM.
For CCNc1ccc2c(C)cc(C(=O)N3CCC4(CC3)CC(=O)c3nc(C(C)(C)C)sc3C4)cc2n1 [Example 39, 2-(tert-butyl)-1′-(2-(ethylamino)-5-methylquinoline-7-carbonyl)-5H-spiro[benzo[d]thiazole-6,4′-piperidin]-4(7H)-one], the IC50 was 6.4 nM.
In the case of Cc1cc(C(=O)N2CCC3(CC2)CC(=O)c2nc(C(C)(C)C)sc2C3)cc2c(C3CC3)nccc12 [Example 25, 2-(tert-butyl)-1′-(1-cyclopropyl-5-methylisoquinoline-7-carbonyl)-5H-spiro[benzo[d]thiazole-6,4′-piperidin]-4(7H)-one], the IC50 is reported as 6.6 nM.
In the case of Cc1cc(C(=O)N2CCC3(CC2)CC(=O)c2nc(C(C)(C)C)sc2C3)cc2cccnc12 [Example 48], the IC50 is reported as 10000 nM.
In the case of “2-(tert-butyl)-1′-(4-chloro-5-methoxy-1H-indole-7-carbonyl)-5H-spiro[benzo[d]thiazole-6,4′-piperidin]-4(7H)-one [Example 37]”, the IC50 is reported as 1.3 nM.
